Earlier results in patent US20130280327A1, “ZOLPIDEM-BASED ORODISPERSIBLE PHARMACEUTICAL TABLET” (Sanofi, priority 2010, published 2013).

Conditions: hypnotic action, oral, conventional formulations

Compound: Cc1ccc(-c2nc3ccc(C)cn3c2CC(=O)N(C)C)cc1 [zolpidem]
- duration of action: up to 6 hours
